# Experimental data published in patent US20110224231A1, “Novel Lactams as Beta Secretase Inhibitors” (Pfizer Inc., priority 2008, published 2011).
# Where a name gives a salt, the structure may show the parent alone.
# Molecular target: T1, soluble human BACE (Homo sapiens, UniProt P56817)
# T1 construct: cells secreting human recombinant soluble BACE; made in house; conditioned medium
# Assay: BACE activity Cell Free Assay (ELISA of cleaved synthetic APP substrate)
# Assay type: biochemical
# Conditions: not given
# T1 sequence (P56817 46-457 limits assumed): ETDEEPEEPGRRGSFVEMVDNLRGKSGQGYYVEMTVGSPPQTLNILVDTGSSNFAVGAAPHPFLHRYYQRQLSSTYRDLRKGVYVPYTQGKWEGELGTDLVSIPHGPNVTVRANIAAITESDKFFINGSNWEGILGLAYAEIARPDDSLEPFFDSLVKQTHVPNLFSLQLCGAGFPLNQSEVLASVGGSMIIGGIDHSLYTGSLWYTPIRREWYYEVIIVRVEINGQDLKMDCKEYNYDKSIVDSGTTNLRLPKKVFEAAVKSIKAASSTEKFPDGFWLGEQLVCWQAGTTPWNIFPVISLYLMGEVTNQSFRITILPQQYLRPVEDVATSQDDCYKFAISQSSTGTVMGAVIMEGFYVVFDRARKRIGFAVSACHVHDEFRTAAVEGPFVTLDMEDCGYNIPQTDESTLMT
row,Compound,IC50
1,"CC1CC2(CCC(=O)N2c2cccc(F)c2)CCN1Cc1c[nH]c2cc(C(F)(F)F)ccc12 (racemic) [Example 84, Racemic (5R,7S),(5S.7R)-1-(3-fluorophenyl)-7-methyl-8-{[6-(trifluoromethyl)-1H-indol-3-yl]methyl}-1,8-diazaspiro[4.5]decan-2-one]",100 to 300 µM
2,"CC1CC2(C=CC(=O)N2c2cccc(F)c2)CCN1Cc1nc(-c2ccccc2Cl)cs1 (racemic) [Example 85, Racemic (5R,7S),(5S,7R)-8-{[4-(2-chlorophenyl)-1,3-thiazol-2-yl]methyl}-1-(3-fluorophenyl)-7-methyl-1,8-diazaspiro[4.5]dec-3-en-2-one]",100 to 300 µM
3,"CC1CC2(CCC(=O)N2c2cccc(F)c2)CCN1Cc1cccc(OCc2nc(C3CC3)no2)c1 (racemic) [Example 86, Racemic (5R,7S),(5S,7R)-8-{3-[(3-cyclopropyl-1,2,4-oxadiazol-5-yl)methoxy]benzyl}-1-(3-fluorophenyl)-7-methyl-1,8-diazaspiro[4.5]decan-2-one]",100 to 300 µM
4,"CC(C)Oc1cccc(CN2CC[C@]3(CC(F)C(=O)N3c3cccc(F)c3)C[C@@H]2C)c1 (mixture of isomers) [Example 90, Racemic (5R,7S)(5S,7R)-3-fluoro-1-(3-fluorophenyl)-8-(3-isopropoxybenzyl)-7˜methyl˜1,8˜diazaspiro[4.5]decan˜2˜one, formate salt]",10 to 100 µM
5,"CC(C)Oc1cccc(CN2CC[C@@]3(C[C@@H]2C)CC(F)(F)C(=O)N3c2cccc(F)c2)c1 (racemic) [Example 91, Racemic (5R,7S)(5S,7R)˜3,3˜difluoro˜1˜(3˜fluorophenyl)˜8˜(3˜isopropoxybenzyl)˜7˜methyl˜1,8˜diazaspiro[4.5]decan˜2˜one, formate salt]",10 to 100 µM
6,"CC(C)Oc1cccc(CN2CC[C@]3(CC(O)C(=O)N3c3cccc(F)c3)C[C@@H]2C)c1 (mixture of isomers) [Example 92, Racemic (3R/S,5R,7S)(3R/S,5S,7R)˜1˜(3˜fluorophenyl)˜3˜hydroxy˜8˜(3˜isopropoxybenzyl)-7-methyl-1,8-diazaspiro[4.5]decan-2-one, hydrochloride salt]",10 to 100 µM
7,CC(C)Oc1cccc(CN2CC[C@]3(C=CC(=O)N3c3ccccn3)C[C@@H]2C)c1 [#101],10 to 100 µM
8,CC(C)Oc1cccc(CN2CC[C@]3(C=CC(=O)N3c3ccncc3)C[C@@H]2C)c1 [#102],100 to 300 µM
9,Cc1cccc(N2C(=O)C=C[C@]23CCN(Cc2cccc(OC(C)C)c2)[C@@H](C)C3)n1 [#107],1 to 10 µM
10,Cc1ccnc(N2C(=O)C=C[C@]23CCN(Cc2cccc(OC(C)C)c2)[C@@H](C)C3)c1 [#108],1 to 10 µM
11,Cc1ccc(N2C(=O)C=C[C@]23CCN(Cc2cccc(OC(C)C)c2)[C@@H](C)C3)cn1 [#109],10 to 100 µM
12,Cc1cc(N2C(=O)C=C[C@]23CCN(Cc2cccc(OC(C)C)c2)[C@@H](C)C3)ccn1 [#110],10 to 100 µM
13,CC(C)Oc1cccc(CN2CC[C@]3(C=CC(=O)N3c3cccnc3)C[C@@H]2C)c1 [#111],10 to 100 µM
14,COc1cc(F)cc(N2C(=O)C=C[C@]23CCN(Cc2cccc(OC(C)C)c2)[C@@H](C)C3)c1 [#112],1 to 10 µM
15,CC(C)Oc1cccc(CN2CC[C@]3(C=CC(=O)N3c3cnn(C)c3)C[C@@H]2C)c1 [#113],10 to 100 µM
16,Cc1cncc(N2C(=O)C=C[C@]23CCN(Cc2cccc(OC(C)C)c2)[C@@H](C)C3)c1 [#114],1 to 10 µM

row,Compound,IC50
1,Cc1cccnc1N1C(=O)C=C[C@]12CCN(Cc1cccc(OC(C)C)c1)[C@@H](C)C2 [#115],10 to 100 µM
2,CC(C)Oc1cccc(CN2CC[C@]3(C=CC(=O)N3c3cncc(F)c3)C[C@@H]2C)c1 [#116],1 to 10 µM
3,CC(C)Oc1cccc(CN2CC[C@]3(C=CC(=O)N3c3cncc(Cl)c3)C[C@@H]2C)c1 [#117],1 to 10 µM
4,CC(C)Oc1cccc(CN2CC[C@]3(C=CC(=O)N3c3cncc(C(F)(F)F)c3)C[C@@H]2C)c1 [#118],10 to 100 µM
5,CC(C)Oc1cccc(CN2CC[C@]3(C=CC(=O)N3c3cc(C(F)(F)F)ccn3)C[C@@H]2C)c1 [#119],100 to 300 µM
6,CC(C)Oc1cccc(CN2CC[C@]3(C=CC(=O)N3c3cncc(C#N)c3)C[C@@H]2C)c1 [#120],10 to 100 µM
7,Cc1nc(N2C(=O)C=C[C@]23CCN(Cc2cccc(OC(C)C)c2)[C@@H](C)C3)cs1 [#121],1 to 10 µM
8,CC(C)Oc1cccc(CN2CC[C@]3(C=CC(=O)N3c3ccn(C)n3)C[C@@H]2C)c1 [#122],10 to 100 µM
9,CCn1cc(N2C(=O)C=C[C@]23CCN(Cc2cccc(OC(C)C)c2)[C@@H](C)C3)cn1 [#123],100 to 300 µM
10,"CC(C)n1ncc2ccc(CN3CC[C@]4(C=CC(=O)N4c4cnccn4)C[C@@H]3C)cc21 [#130, (5R,7S)-8-[(1-isopropyl-1H-indazol-6-yl)methyl]-7-methyl-1-pyrazin-2-yl-1,8-diazaspiro[4.5]dec-3-en-2-one]",10 to 100 µM
11,"C[C@H]1C[C@@]2(C=CC(=O)N2c2cnccn2)CCN1Cc1scnc1CC1CCC1 [#131, (5R,7S)-8-([4-(cyclobutylmethyl)-1,3-thiazol-5-yl]methyl)-7-methyl-1-pyrazin-2-yl-1,8-diazaspiro[4.5]dec-3-en-2-one]",1 to 10 µM
12,"CC(C)Oc1cc(CN2CC[C@]3(C=CC(=O)N3c3cnccn3)C[C@@H]2C)ccc1O [#132, (5R,7S)-8-(4-hydroxy-3-isopropoxybenzyl)-7-methyl-1-pyrazin-2-yl-1,8-diazaspiro[4.5]dec-3-en-2-one]",0.001 to 1 µM
13,"CCCn1nccc1CN1CC[C@]2(C=CC(=O)N2c2cnccn2)C[C@@H]1C [#133, (5R,7S)-7-methyl-8-[(1-propyl-1H-pyrazol-5-yl)methyl]-1-pyrazin-2-yl-1,8-diazaspiro[4.5]dec-3-en-2-one]",100 to 300 µM
14,"C[C@H]1C[C@@]2(C=CC(=O)N2c2cnccn2)CCN1Cc1ccnn1CC(F)(F)F [#134, (5R,7S)-7-methyl-1-pyrazin-2-yl-8-[(1-(2,2,2-trifluoroethyl)-1H-pyrazol-5-yl]methyl]-1,8-diazaspiro[4.5]dec-3-en-2-one]",100 to 300 µM
15,"Cc1cccc(N2C(=O)C=C[C@]23CCN(Cc2ccc(O)c(OC(C)C)c2)[C@@H](C)C3)n1 [#135, (5R,7S)-8-(4-hydroxy-3-isopropoxybenzyl)-7-methyl-1-(6-methylpyridin-2-yl)-1,8-diazaspiro[4.5]dec-3-en-2-one]",0.001 to 1 µM
16,"Cc1cccc(N2C(=O)C=C[C@]23CCN(Cc2ccc(O)c(-c4sccc4C)c2)[C@@H](C)C3)n1 [#136, (5R,7S)-8-[4-hydroxy-3-(3-methyl-2-thienyl)benzyl]-7-methyl-1-(6-methylpyridin-2-yl)-1,8-diazaspiro[4.5]dec-3-en-2-one]",0.001 to 1 µM

# Same assay, conditions: Table 4; cell free, soluble human BACE, pH 4.5, 3 μM substrate; read-out: BACE Activity (Cell Free Assay IC50)
row,Compound,IC50
1,CC(C)Oc1cccc(CN2CC[C@]3(C=CC(=O)N3c3ccc(Cl)cn3)C[C@@H]2C)c1 [#104],10 to 100 µM
2,Cc1ccc(N2C(=O)C=C[C@]23CCN(Cc2cccc(OC(C)C)c2)[C@@H](C)C3)nc1 [#105],10 to 100 µM
3,CC(C)Oc1cccc(CN2CC[C@]3(C=CC(=O)N3c3ccc(F)cn3)C[C@@H]2C)c1 [#124],10 to 100 µM
4,CC(C)Oc1cccc(CN2CC[C@]3(C=CC(=O)N3c3cccc(C(F)(F)F)n3)C[C@@H]2C)c1 [#125],10 to 100 µM
5,Cc1cncc(N2C(=O)C=C[C@]23CCN(Cc2cccc(OC(C)C)c2)[C@@H](C)C3)n1 [#126],10 to 100 µM
